Data from US20130123255A1, “COMBINATION OF A PI3K INHIBITOR AND A MEK INHIBITOR” (CHUGAI SEIYAKU KABUSHIKI KAISHA, priority 2011, published 2013).

What was measured:
[1] = test system: ERK phosphorylation in HCT116 cells; experiment: Western blot of MAPK pathway, ERK phosphorylation; format: cell-based
Experimental: (§1) To investigate the combination effect on PI3K and MAPK pathway, compound of formula (I) and compound of formula (II) were tested on HCT116 cells.
(§2) 5×10^5 of cells were treated with compound of formula (I) alone, compound of formula (II) alone or the combination thereof at 1 μM for 24 hours in 6-well plate. After that, HCT116 cells were lysed with Cell Lysis Buffer (Cell Signaling Technology) containing protease and phosphatase inhibitors. The lysates were denatured and then subjected to SDS-PAGE. After electroblotting, the polyvinylidene fluoride membranes were blocked with Blocking One (Nacalai Tesque) for 1 h. Membranes were then incubated with primary antibodies purchased from Cell Signaling Technology Inc., and anti-actin antibody purchased from Santa Cruz Biotechnology over night at 4° C., followed by washing three times with 0.1% Tween 20 (Nacalai Tesque) in TBS buffer (TBS-T buffer; TaKaRa Bio). This was followed by 0.5 to 1 h incubation at room temperature with secondary antibodies (Cell Signaling Technology). Then, membranes were washed four times with TBS-T buffer, followed by incubation with ECL or ECL-plus solutions (GE Healthcare). Signals were detected using LAS-4000 (Fujifilm) according to the manufacturer's instructions.

[2] = test system: Akt phosphorylation in HCT116 cells; experiment: Western blot of PI3K pathway, Akt phosphorylation; format: cell-based; details: 1 μM, 24 hours, FIG. 3
Experimental: as §1, §2

Compound	phosphorylation of ERK [1]	phosphorylation of Akt [2]
O=C(NOCCO)c1cc(CN2OCCCC2=O)c(F)c(F)c1Nc1ccc(I)cc1F [compound of formula (I), 3,4-difluoro-2-(2-fluoro-4-iodo-phenylamino)-N-(2-hydroxy-ethoxy)-5-(3-oxo-[1,2]oxazinan-2-ylmethyl)-benzamide]	suppressed	
CS(=O)(=O)N1CCc2c(-c3cnc(N)nc3)nc(N3CCOCC3)nc21 [compound of formula (II), 5-(7-methanesulfonyl-2-morpholin-4-yl-6,7-dihydro-5H-pyrrolo[2,3-d]pyrimidin-4-yl)-pyrimidin-2-ylamine]		suppressed
